# Results taken from patent US8809358B2, “Use of IκB-kinase inhibitors in pain therapy” (Sanofi-Aventis Deutschland GmbH, priority 2002, dated 2014).
# Tested on: Zymosan-induced paw inflammation
# Assay: Zymosan-induced paw inflammation in the rat: paw withdrawal time during thermal stimulation (Hargreaves test)
# Assay type: in vivo
# Settings: for Change in the paw withdrawal time (%): 30 mg/kg i.p. 15 min before, 2.5 and 5.5 h after Zymosan
# Procedure: • Zymosan-induced paw inflammation in the rat; • Parameter: paw withdrawal time or paw withdrawal threshold during thermal or mechanical stimulation of the hind paw. 2nd Model: • Kaolin/carrageenan-induced knee joint inflammation in the rat; • Parameter: reaction of spinal neurons during pressure stimulation of the knee. Model 1
# Experimental implementation: in short-term anesthesia using isoflurane, 1 mg of Zymosan (as a suspension in 100 μl of PBS (phosphate-buffered salt solution)) was injected subcutaneously into the middle of the plantar side of one of the experimental animal's hind paws. After that, two different behavioral tests were used to quantitatively determine the development of a hyperalgesia.
# a) Determining the Paw Withdrawal Time During Thermal Stimulation (Hargreaves Test).
# The experimental animal was placed in a transparent plastic chamber having a glass floor. As soon as the experimental animal was no longer moving, following the reconnaissance phase (about 5 min), an infrared light source was positioned directly below the hind paw to be stimulated and switched on. The lamp emitted focused infrared light of increasing intensity, such that the skin temperature of the hind paw increased almost linearly. As soon as the animal withdrew the paw, the lamp switched itself off. The temperature of the paw at the time it is withdrawn has just become unpleasant for the animal; this is referred to as the thermal pain threshold.
# About half an hour before, and at various times after, the Zymosan injection, the thermal and mechanical pain thresholds were determined on the right hind paw and on the left hind paw (see Tables 1, 2). The decrease in the ipsilateral pain threshold, expressed in % of the contralateral pain threshold, was then calculated (see Tables 1, 2). The degree of hyperalgesia is directly proportional to the magnitude of this decrease.
# In a control group, the Zymosan injection induced pronounced mechanical and thermal hyperalgesia (see control data in Tabs. 1 and 2).
compound,measurement,setting,value
"CNc1nccc(-c2cc3cc(C(=O)N[C@@H](CN(c4ccccc4)c4ccccc4)c4n[nH]c(=O)o4)ccc3[nH]2)n1 [Compound 13, N—[(S)-2-diphenylamino-1-(5-oxo-4,5-dihydro[1,3,4]oxadiazol-2-yl)ethyl]-2-(2-methylaminopyrimidin-4-yl)-1H-indole-5-carboxamide]",Change in the paw withdrawal time (%),4 h after Zymosan injection,−16.0%
same,Change in the paw withdrawal time (%),5 h after Zymosan injection,−9.7%
same,Change in the paw withdrawal time (%),6 h after Zymosan injection,5.0%
same,Change in the paw withdrawal time (%),7 h after Zymosan injection,3.4%
same,Change in the paw withdrawal time (%),24 h after Zymosan injection,−3.8%
same,Change in the paw withdrawal time (%),Baseline −0.5 h,0.0%
same,persistence of the effect on thermal hyperalgesia after the last administration,30 mg/kg i.p. three times,≥ 18 h
same,side difference in the paw withdrawal time,"30 mg/kg i.p., after the third administration of the substance",no longer possible to observe any side difference at all
same,thermal hyperalgesia compared with the control group,"30 mg/kg i.p., from two hours after Zymosan injection onward",less pronounced
same,reduction of thermal hyperalgesia compared with the NSAID diclofenac,comparative data from a study carried out previously,considerably more powerfully
same,activity in the test model,thermal hyperalgesia,very strong
